Calls of active or inactive are those of the source. The rule behind the calls is not given here.
Key:
[1] = tested on: Nephotettix cincticeps; experiment: Insecticidal activity against Nephotettix cincticeps (green rice leafhopper) assessed as mortality measured after 4 days; type: functional
[2] = tested on: Nephotettix cincticeps; experiment: Insecticidal activity against Nephotettix cincticeps (green rice leafhopper) in rice plant assessed as mortality at 100 mg/L insects released after 7 days of compound treatment measured after 24 hr of insect release; type: functional
[3] = tested on: Nephotettix cincticeps; experiment: Insecticidal activity against Nephotettix cincticeps (green rice leafhopper) in rice plant assessed as mortality at 100 mg/L insects released after 7 days of compound treatment measured after 72 hr of insect release (reference value: 0%); type: functional
[4] = tested on: Nephotettix cincticeps; experiment: Insecticidal activity against Nephotettix cincticeps (green rice leafhopper) in rice plant assessed as mortality at 100 mg/L insects released after 3 days of compound treatment measured after 24 hr of insect release; type: functional
[5] = tested on: Nephotettix cincticeps; experiment: Insecticidal activity against Nephotettix cincticeps (green rice leafhopper) in rice plant assessed as mortality at 100 mg/L insects released after 14 days of compound treatment measured after 24 hr of insect release; type: functional
[6] = tested on: Nephotettix cincticeps; experiment: Insecticidal activity against Nephotettix cincticeps (green rice leafhopper) in rice plant assessed as mortality at 100 mg/L insects released after 14 days of compound treatment measured after 72 hr of insect release (reference value: 0%); type: functional
[7] = tested on: Myzus persicae; experiment: Insecticidal activity against Myzus persicae (green peach aphid) in cabbage plant assessed as mortality at 100 mg/L insects released after 14 days of compound treatment measured after 72 hr of insect release (reference value: 0%); type: functional
[8] = tested on: Nephotettix cincticeps; experiment: Insecticidal activity against Nephotettix cincticeps (green rice leafhopper) in rice plant assessed as mortality at 100 mg/L insects released after 3 days of compound treatment measured after 48 hr of insect release; type: functional
[9] = tested on: Nephotettix cincticeps; experiment: Insecticidal activity against Nephotettix cincticeps (green rice leafhopper) in rice plant assessed as mortality at 100 mg/L insects released after 7 days of compound treatment measured after 48 hr of insect release; type: functional
[10] = tested on: Nephotettix cincticeps; experiment: Insecticidal activity against Nephotettix cincticeps (green rice leafhopper) in rice plant assessed as mortality at 100 mg/L insects released after 3 days of compound treatment measured after 72 hr of insect release (reference value: 0%); type: functional
[11] = tested on: Myzus persicae; experiment: Insecticidal activity against Myzus persicae (green peach aphid) in cabbage plant assessed as mortality at 100 mg/L insects released after 7 days of compound treatment measured after 72 hr of insect release (reference value: 10 +/- 3%); type: functional
[12] = tested on: Nephotettix cincticeps; experiment: Insecticidal activity against Nephotettix cincticeps (green rice leafhopper) in rice plant assessed as mortality at 100 mg/L insects released after 14 days of compound treatment measured after 48 hr of insect release; type: functional
[13] = tested on: Myzus persicae; experiment: Insecticidal activity against Myzus persicae (green peach aphid) in cabbage plant assessed as mortality at 100 mg/L insects released after 3 days of compound treatment measured after 72 hr of insect release (reference value: 14 +/- 4%); type: functional
[14] = Photolysis of the compound assessed as half life at 30 degC by 250 W sun lamp; type: physicochemical
[15] = tested on: Spodoptera litura; experiment: Insecticidal activity against Spodoptera litura (tobacco cutworm) assessed as mortality measured as LC90; type: functional

SMILES | LC90 [1] | further results
O=[N+]([O-])/C=C1\NCCN1CCc1ccccc1 | inactive | 
O=[N+]([O-])/C=C1\NCCN1Cc1ccco1 | 200 ppm | 
O=[N+]([O-])/N=C1/N(CCCCCCCN2CCN(Cc3ccc(Cl)nc3)/C2=N/[N+](=O)[O-])CCN1Cc1ccc(Cl)nc1 [Heptamethylene 1,7-bis-imadacloprid] |  | mortality [2]: 83%; mortality [3]: 100%; mortality [4]: 13%; mortality [5]: 100%; mortality [6]: 100%; mortality [7]: 100%; mortality [8]: 40%; mortality [9]: 100%; mortality [10]: 100%; mortality [11]: 100%; mortality [12]: 100%; mortality [13]: 100%
O=[N+]([O-])/N=C1\NCCCN1Cc1ccc(Cl)nc1 |  | half-life [14]: 3.5 h
O=[N+]([O-])/C=C1\NCCN1Cc1cnccn1 | 8 ppm | 
O=[N+]([O-])/C=C1\NCCN1Cc1ccc(C(F)(F)F)nc1 | 8 ppm | 
O=[N+]([O-])/C=C1\NCCN1Cc1ccsc1 | 200 ppm | 
O=[N+]([O-])/C=C1\NCCN1Cc1ccncc1 | 8 ppm | 
O=[N+]([O-])/C=C1\NCCN1Cc1cnc2ccccc2c1 | inactive | 
CSc1ccc(CN2CCN/C2=C\[N+](=O)[O-])cn1 | 1000 ppm | 
O=[N+]([O-])/C=C1\NCCCN1Cc1ccc(Cl)nc1 |  | half-life [14]: 2 h
N#Cc1cccc(CN2CCN/C2=C\[N+](=O)[O-])c1 | 40 ppm | 
O=[N+]([O-])/C=C1\NCCCN1Cc1ccccc1 | >200 ppm | 
O=C1NCCN1Cc1ccc(Cl)nc1 | 1000 ppm | 
COc1ccc(CN2CCN/C2=C\[N+](=O)[O-])cn1 | 200 ppm | 
O=[N+]([O-])/C=C1\NCCN1Cc1ccn[nH]1 | 200 ppm | 
O=[N+]([O-])/C=C1\NCCN1Cc1cccnc1Cl | 200 ppm | 
O=[N+]([O-])N=C1N(Cc2ccc(Cl)nc2)CCN1Cc1ccc(Cl)nc1 | 1.6 ppm | 
O=[N+]([O-])/C=C1\NCCN1Cc1ccc[nH]1 | 200 ppm | 
Cc1ccc(CN2CCN/C2=C\[N+](=O)[O-])cc1 | 200 ppm | 
CS(=O)(=O)/N=C1\NCCN1Cc1ccc(Cl)nc1 | 40 ppm | 
O=[N+]([O-])/C=C1\SCCN1Cc1ccc(Cl)nc1 |  | half-life [14]: < 0.5 h
O=[N+]([O-])/C=C1\NCCN1Cc1ccc(F)nc1 | 0.32 ppm | 

SMILES | LC90 [1] | further results
CN1CCN/C1=C\[N+](=O)[O-] | 1000 ppm | 
CCOC(=O)/N=C1\NCCN1Cc1ccc(Cl)nc1 | 40 ppm | 
CN1CCN(Cc2ccc(Cl)nc2)/C1=N/[N+](=O)[O-] | 1.6 ppm | 
O=[N+]([O-])/C=C1\NCCN1Cc1ccc([N+](=O)[O-])cc1 | 200 ppm | 
O=[N+]([O-])/C=C1\NCCN1CC1CCCO1 (centres undefined) | 500 ppm | 
COc1ccc(CN2CCN/C2=C\[N+](=O)[O-])cc1 | 200 ppm | 
N#C/C=C1\NCCN1Cc1ccc(Cl)nc1 | inactive | 
O=[N+]([O-])/C=C1\NCCN1Cc1ccncn1 | 40 ppm | 
O=[N+]([O-])/N=C1\NCCN1Cc1ccc(Cl)nc1 [IMIDACLOPRID] | <0.32 ppm | mortality [2]: 89%; mortality [3]: 100%; mortality [4]: 47%; mortality [5]: 95%; mortality [6]: 100%; mortality [8]: 80%; mortality [9]: 100%; mortality [10]: 100%; mortality [12]: 100%; half-life [14]: 3 h
O=[N+]([O-])/C=C1\NCCN1Cc1ccc(Br)nc1 | 1.6 ppm | 
O=[N+]([O-])/C=C1\NCCN1Cc1cccs1 | 200 ppm | 
Cc1ccc(CN2CCN/C2=C\[N+](=O)[O-])cn1 | 1.6 ppm | 
O=[N+]([O-])/C=C1\NCCN1Cc1ccccc1 | 200 ppm | 
N#Cc1ccc(CN2CCN/C2=C\[N+](=O)[O-])cn1 | 200 ppm | 
O=[N+]([O-])/C=C1\NCCN1Cc1cccnc1 | 8 ppm | 
O=[N+]([O-])/C=C1\NCCCCN1Cc1ccccc1 | 1000 ppm | 
CCCCCN1CCN(Cc2ccc(Cl)nc2)/C1=N/[N+](=O)[O-] | 20 ppm | 
O=[N+]([O-])C=C1NCCCS1 | 40 ppm | half-life [14]: 0.5 h; LC90 [15]: <40 ppm
O=[N+]([O-])/N=C1/N(CCCCCCN2CCN(Cc3ccc(Cl)nc3)/C2=N/[N+](=O)[O-])CCN1Cc1ccc(Cl)nc1 [Hexamethylene 1,6-bis-imadacloprid] |  | mortality [2]: 59%; mortality [3]: 94%; mortality [4]: 56%; mortality [5]: 60%; mortality [6]: 100%; mortality [7]: 50%; mortality [8]: 78%; mortality [9]: 94%; mortality [10]: 89%; mortality [11]: 55%; mortality [12]: 100%; mortality [13]: 83%
O=[N+]([O-])/C=C1\NCCN1Cc1cncs1 | 8 ppm | 
CCCCCCN1CCN(Cc2ccc(Cl)nc2)/C1=N/[N+](=O)[O-] | 40 ppm | 
O=[N+]([O-])/C=C1\NCCN1Cc1cccc(Cl)c1 | 200 ppm | 
O=[N+]([O-])C=C1NCCN1 [2-(NITROMETHYLENE)IMIDAZOLIDINE] | 1000 ppm | 

SMILES | LC90 [1] | further results
C=CCN1CCN(Cc2ccc(Cl)nc2)/C1=N/[N+](=O)[O-] | 0.32 ppm | 
O=[N+]([O-])/C=C1\NCCN1Cc1ccccc1Cl | inactive | 
O=[N+]([O-])/C=C1\NCCN1Cc1ccc(Cl)nc1 | 0.32 ppm | half-life [14]: 1 h
O=[N+]([O-])/C=C1\NCCN1Cc1ccccn1 | 200 ppm | 
N=C1NCCN1Cc1ccc(Cl)nc1 [DESNITROIMIDACLOPRID] | 1000 ppm | 
CCOC(=O)/C=C1\NCCN1Cc1ccc(Cl)nc1 | inactive | 
O=[N+]([O-])/C=C1\NCCN1C1CCCCC1 | 1000 ppm | 
O=[N+]([O-])/C=C1\NCCN1Cc1ccc(Cl)cc1 | 40 ppm | LC90 [15]: 500 ppm
O=[N+]([O-])/C=C1\NCCCCCN1Cc1ccccc1 | 1000 ppm | 
O=[N+]([O-])/C=C1\NCCN1c1ccccc1 | 1000 ppm | 
N#C/N=C1\NCCN1Cc1ccc(Cl)nc1 | 0.32 ppm | half-life [14]: > 24 h
CC(=O)Nc1ccc(CN2CCN/C2=C\[N+](=O)[O-])cn1 | 1000 ppm | 
CN/C(=C\[N+](=O)[O-])NCc1ccccc1 | inactive | 
O=[N+]([O-])/C=C1\NCCN1Cc1cncc(Cl)c1 | 40 ppm | 
CCN1CCN(Cc2ccc(Cl)nc2)/C1=N/[N+](=O)[O-] | 8 ppm | 
CCCCN1CCN(Cc2ccc(Cl)nc2)/C1=N/[N+](=O)[O-] | 1.6 ppm | 
N#CC(C#N)=C1NCCN1Cc1ccc(Cl)nc1 | 40 ppm | 
O=[N+]([O-])/C=C1\NCCN1Cc1cncnc1 | 8 ppm | 
CCCN1CCN(Cc2ccc(Cl)nc2)/C1=N/[N+](=O)[O-] | 0.32 ppm | 
O=[N+]([O-])/C=C1\NCCN1Cc1cnco1 | 40 ppm | 
CC(C)N1CCN(Cc2ccc(Cl)nc2)/C1=N/[N+](=O)[O-] | 40 ppm | 

Reference: ChEMBL document CHEMBL3044716, “Discovery of imidacloprid and further developments from strategic molecular designs” (J Agric Food Chem, 2011)
